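Five compound concentrations were applied to cells in 96-well plates for 48 hours; endpoints were derived by simple linear interpolation of the resulting dose-response curve. GI50 marks 50% less growth.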 Active and inactive are the calls of the source. Rule as the data show it: active = GI50 up to about 1.1 µM and inactive = higher.
Legend:
Assay in all cases: NCI-60 cell line screen, 48 h
[1] = tested on: MDA-MB-435
[2] = tested on: SK-MEL-5
[3] = tested on: MDA-N
[4] = tested on: NCI-H460
[5] = tested on: PC-3
[6] = tested on: OVCAR-5
[7] = tested on: SW-620
[8] = tested on: SF-295
[9] = tested on: SF-268
[10] = tested on: ACHN
[11] = tested on: MDA-MB-231
[12] = tested on: SF-539
[13] = tested on: HOP-62
[14] = tested on: COLO 205
[15] = tested on: BT-549
[16] = tested on: HCT-15
[17] = tested on: RPMI-8226
[18] = tested on: SN12C
[19] = tested on: OVCAR-4
[20] = tested on: SR
[21] = tested on: IGROV-1
[22] = tested on: HT-29
[23] = tested on: KM12
[24] = tested on: HL-60
[25] = tested on: HCC 2998
[26] = tested on: U-251
[27] = tested on: MOLT-4
[28] = tested on: A549
[29] = tested on: M14
[30] = tested on: OVCAR-8
[31] = tested on: CAKI-1
[32] = tested on: SNB-75
[33] = tested on: TK-10
[34] = tested on: EKVX
[35] = tested on: UACC-62
[36] = tested on: NCI-H23
[37] = tested on: SK-MEL-28
[38] = tested on: 786-0
[39] = tested on: SNB-19
[40] = tested on: UO-31
[41] = tested on: SK-MEL-2
[42] = tested on: UACC-257
[43] = tested on: LOX IMVI
[44] = tested on: CCRF-CEM
[45] = tested on: HCT-116
[46] = tested on: HOP-92
[47] = tested on: NCI-H522
[48] = tested on: RXF 393
[49] = tested on: DU-145
[50] = tested on: K562
[51] = tested on: Malme-3M
[52] = tested on: MCF7
[53] = tested on: NCI/ADR-RES
[54] = tested on: A498
[55] = tested on: OVCAR-3
[56] = tested on: NCI-H226
[57] = tested on: Hs-578T
[58] = tested on: T47D
[59] = tested on: SK-OV-3

Compound: O=C1C2=Cc3ccccc3CCN2c2ccccc21
- GI50 [1]: 28.7 µM (inactive)
- GI50 [2]: 17.3 µM (inactive)
- GI50 [3]: > 10 µM (inactive)
- GI50 [4]: 21.2 µM (inactive)
- GI50 [5]: 35.2 µM (inactive)
- GI50 [6]: 61.4 µM (inactive)
- GI50 [7]: 20.4 µM (inactive)
- GI50 [8]: 34.4 µM (inactive)
- GI50 [9]: > 50.8 µM (inactive)
- GI50 [10]: 17.3 µM (inactive)
- GI50 [11]: > 41.9 µM (inactive)
- GI50 [12]: 16.4 µM (inactive)
- GI50 [13]: > 63.8 µM (inactive)
- GI50 [14]: > 41.7 µM (inactive)
- GI50 [15]: 13.8 µM (inactive)
- GI50 [16]: 25.6 µM
- GI50 [17]: 13.5 µM (inactive)
- GI50 [18]: 18.8 µM (inactive)
- GI50 [19]: 33.7 µM (inactive)
- GI50 [20]: 14.9 µM (inactive)
- GI50 [21]: 30.2 µM (inactive)
- GI50 [22]: 14.9 µM (inactive)
- GI50 [23]: 26.7 µM (inactive)
- GI50 [24]: 18.9 µM (inactive)
- GI50 [25]: 7.31 µM (inactive)
- GI50 [26]: > 31.6 µM (inactive)
- GI50 [27]: 18.7 µM (inactive)
- GI50 [28]: 49.2 µM (inactive)
- GI50 [29]: 16.1 µM (inactive)
- GI50 [30]: 23.6 µM (inactive)
- GI50 [31]: 19.1 µM (inactive)
- GI50 [32]: > 100 µM (inactive)
- GI50 [33]: > 100 µM (inactive)
- GI50 [34]: 29 µM (inactive)
- GI50 [35]: > 10 µM (inactive)
- GI50 [36]: > 59.6 µM (inactive)
- GI50 [37]: > 49.9 µM (inactive)
- GI50 [38]: 19.6 µM (inactive)
- GI50 [39]: 46 µM (inactive)
- GI50 [40]: 42.8 µM (inactive)
- GI50 [41]: 21 µM (inactive)
- GI50 [42]: 27.2 µM (inactive)
- GI50 [43]: 17.3 µM (inactive)
- GI50 [44]: 13.6 µM (inactive)
- GI50 [45]: 21.3 µM (inactive)
- GI50 [46]: 28.8 µM (inactive)
- GI50 [47]: 40.2 µM (inactive)
- GI50 [48]: > 10 µM (inactive)
- GI50 [49]: > 75.3 µM (inactive)
- GI50 [50]: 12.7 µM (inactive)
- GI50 [51]: 26.3 µM (inactive)
- GI50 [52]: 14.9 µM (inactive)
- GI50 [53]: 30.1 µM (inactive)
- GI50 [54]: 16.3 µM (inactive)
- GI50 [55]: 91.4 µM (inactive)
- GI50 [56]: 13.9 µM (inactive)
- GI50 [57]: 41 µM (inactive)

Compound: CCn1ncc(N=O)c1N
- GI50 [1]: > 100 µM (inactive)
- GI50 [2]: > 100 µM (inactive)
- GI50 [4]: > 100 µM (inactive)
- GI50 [5]: > 100 µM (inactive)
- GI50 [6]: > 100 µM (inactive)
- GI50 [7]: > 100 µM (inactive)
- GI50 [8]: > 100 µM (inactive)
- GI50 [10]: > 100 µM (inactive)
- GI50 [13]: > 100 µM (inactive)
- GI50 [16]: > 100 µM
- GI50 [18]: > 100 µM (inactive)
- GI50 [20]: > 100 µM (inactive)
- GI50 [22]: > 100 µM (inactive)
- GI50 [25]: 56.2 µM (inactive)
- GI50 [58]: > 100 µM (inactive)
- GI50 [27]: > 100 µM (inactive)
- GI50 [30]: > 100 µM (inactive)
- GI50 [31]: > 100 µM (inactive)
- GI50 [33]: > 100 µM (inactive)
- GI50 [34]: > 100 µM (inactive)
- GI50 [35]: > 100 µM (inactive)
- GI50 [37]: > 100 µM (inactive)
- GI50 [38]: > 100 µM (inactive)
- GI50 [40]: > 100 µM (inactive)
- GI50 [42]: > 100 µM (inactive)
- GI50 [43]: > 100 µM (inactive)
- GI50 [49]: > 100 µM (inactive)
- GI50 [52]: > 100 µM (inactive)
- GI50 [53]: > 100 µM (inactive)
- GI50 [55]: > 100 µM (inactive)

Compound: CC1CN=C(Nc2ccc(S(N)(=O)=O)cc2)S1 (stereo not given)
- GI50 [2]: > 100 µM (inactive)
- GI50 [3]: > 10 µM (inactive)
- GI50 [4]: > 100 µM (inactive)
- GI50 [5]: > 10 µM (inactive)
- GI50 [6]: > 100 µM (inactive)
- GI50 [59]: > 100 µM (inactive)
- GI50 [7]: > 100 µM (inactive)
- GI50 [8]: > 100 µM (inactive)
- GI50 [9]: > 100 µM (inactive)
- GI50 [10]: > 100 µM (inactive)
- GI50 [11]: > 100 µM (inactive)
- GI50 [12]: > 100 µM (inactive)
- GI50 [13]: > 100 µM (inactive)
- GI50 [14]: > 100 µM (inactive)
- GI50 [16]: > 100 µM
- GI50 [17]: > 100 µM (inactive)
- GI50 [18]: > 100 µM (inactive)
- GI50 [19]: > 100 µM (inactive)
- GI50 [20]: > 100 µM (inactive)
- GI50 [21]: > 100 µM (inactive)
- GI50 [22]: > 100 µM (inactive)
- GI50 [23]: > 100 µM (inactive)
- GI50 [24]: > 100 µM (inactive)
- GI50 [25]: > 100 µM (inactive)
- GI50 [26]: > 100 µM (inactive)
- GI50 [58]: 60.1 µM (inactive)
- GI50 [27]: > 100 µM (inactive)
- GI50 [28]: > 100 µM (inactive)
- GI50 [29]: > 100 µM (inactive)
- GI50 [30]: > 100 µM (inactive)
- GI50 [31]: > 100 µM (inactive)
- GI50 [32]: > 100 µM (inactive)
- GI50 [33]: > 100 µM (inactive)
- GI50 [34]: > 100 µM (inactive)
- GI50 [36]: > 100 µM (inactive)
- GI50 [37]: > 100 µM (inactive)
- GI50 [38]: > 100 µM (inactive)
- GI50 [39]: > 100 µM (inactive)
- GI50 [40]: 39.4 µM (inactive)
- GI50 [41]: > 100 µM (inactive)
- GI50 [42]: > 100 µM (inactive)
- GI50 [43]: > 10 µM (inactive)
- GI50 [44]: > 100 µM (inactive)
- GI50 [45]: > 100 µM (inactive)
- GI50 [46]: > 100 µM (inactive)
- GI50 [49]: > 100 µM (inactive)
- GI50 [50]: > 100 µM (inactive)
- GI50 [51]: > 100 µM (inactive)
- GI50 [52]: 78.5 µM (inactive)
- GI50 [53]: > 100 µM (inactive)
- GI50 [54]: > 100 µM (inactive)
- GI50 [55]: > 100 µM (inactive)
- GI50 [57]: > 100 µM (inactive)
